Data: US9730447B2, “Fungicidal amides” (E I DU PONT DE NEMOURS AND COMPANY, priority 2013, dated 2017)
Marks after values point to notes of the source that are not given here.

Legend:
Assay type in all cases: in vivo
Septoria tritici = assay: Test C: preventive spray on wheat seedlings, Septoria tritici (wheat leaf blotch), visual disease rating
Excerpt: (§1) General protocol for preparing test suspensions for Tests A-E: the test compounds were first dissolved in acetone in an amount equal to 3% of the final volume and then suspended at the desired concentration (in ppm) in acetone and purified water (50/50 mix by volume) containing 250 ppm of the surfactant Trem® 014 (polyhydric alcohol esters). The resulting test suspensions were then used in Tests A-E. Compounds were sprayed with either a 40 ppm or 10 ppm (*) test suspension to the point of run-off on the test plants which is the equivalent of a rate of 160 g ai/ha or 40 g ai/ha, respectively.
(§2) The test suspension was sprayed to the point of run-off on wheat seedlings. The following day the seedlings were inoculated with a spore suspension of Septoria tritici (the causal agent of wheat leaf blotch) and incubated in a saturated atmosphere at 24° C. for 48 h, and then moved to a growth chamber at 20° C. for 21 days, after which time visual disease ratings were made.
(§3) Results for Tests A-E are given in Table A. In the Table, a rating of 100 indicates 100% disease control and a rating of 0 indicates no disease control (relative to the controls). A dash (-) indicates no test results.

[1] = system: Stagonospora nodorum (also known as Septoria nodorum); assay: Test B: preventive spray on wheat seedlings, Stagonospora nodorum (wheat glume blotch), visual disease rating
Excerpt: as §1
The test suspension was sprayed to the point of run-off on wheat seedlings. The following day the seedlings were inoculated with a spore suspension of Stagonospora nodorum (also known as Septoria nodorum; the causal agent of wheat glume blotch) and incubated in a saturated atmosphere at 20° C. for 48 h, and then moved to a growth chamber at 20° C. for 6 days, after which time visual disease ratings were made.
as §3

[2] = system: Erysiphe graminis f. sp. tritici; assay: Test E: preventive spray on wheat seedlings, Erysiphe graminis f. sp. tritici (wheat powdery mildew), visual disease rating
Excerpt: as §1
The test suspension was sprayed to the point of run-off on wheat seedlings. The following day the seedlings were inoculated with a spore dust of Erysiphe graminis f. sp. tritici, (the causal agent of wheat powdery mildew) and incubated in a growth chamber at 20° C. for 8 days, after which time visual disease ratings were made.
as §3

[3] = system: Puccinia recondite f. sp. tritici; assay: Test D: preventive spray on wheat seedlings, Puccinia recondite f. sp. tritici (wheat leaf rust), visual disease rating
Excerpt: as §1
as §2, with “Puccinia recondite f. sp. tritici;” for “Septoria tritici”, “rust)” for “blotch)”, “20°” for “24°”, “24” for “48”, “6” for “21”
as §3

[4] = values marked with asterisk (*), meaning not given
[5] = 100 = 100% disease control, 0 = no control, unmarked values

Cc1scnc1C(=O)Nc1ccccc1-c1cnc(-n2ccc(C(F)(F)F)n2)c(Cl)c1 [compound 170]
Test C disease control rating (Septoria tritici; [4]): 74* %
Test B disease control rating [1, 4]: 50* %
Test E disease control rating [2, 4]: 0* %
Test D disease control rating [3, 4]: 0* %

O=C(Nc1ccccc1-c1cnc(-n2ccc(C(F)(F)F)n2)c(Cl)c1)c1sccc1F [compound 176]
Test C disease control rating (Septoria tritici; [4]): 93* %
Test B disease control rating [1, 4]: 0* %
Test E disease control rating [2, 4]: 0* %
Test D disease control rating [3, 4]: 0* %

CCOC(=O)C1(C)CC(c2ccc(-c3ccccc3NC(=O)c3ncccc3C(F)(F)F)cn2)=NO1 (racemic) [compound 144]
Test C disease control rating (Septoria tritici; [5]): 81%
Test B disease control rating [1, 5]: 0%
Test E disease control rating [2, 5]: 0%
Test D disease control rating [3, 5]: 68%

Cn1cc(C(=O)Nc2ccccc2-c2cnc(-n3ccc(C(F)(F)F)n3)c(F)c2)c(C(F)(F)F)n1 [compound 150]
Test C disease control rating (Septoria tritici; [5]): 98%
Test B disease control rating [1, 5]: 92%
Test E disease control rating [2, 5]: 99%
Test D disease control rating [3, 5]: 100%

CCOC(=O)C1CC(c2ccc(-c3ccccc3NC(=O)c3ncccc3C(F)(F)F)cn2)=NO1 (racemic) [compound 145]
Test C disease control rating (Septoria tritici; [5]): 26%
Test B disease control rating [1, 5]: 0%
Test E disease control rating [2, 5]: 0%
Test D disease control rating [3, 5]: 0%

O=C(NCCc1ncc(-n2cc(Br)cn2)cn1)c1ncccc1C(F)(F)F [Compound 180]
Test C disease control rating (Septoria tritici; [4]): 2* %
Test B disease control rating [1, 5]: 0%
Test E disease control rating [2, 4]: 0* %
Test D disease control rating [3, 4]: 0* %

O=C(Nc1ccccc1-c1cnc(-n2ccc(C(F)(F)F)n2)c(Cl)c1)c1sccc1Cl [compound 168]
Test C disease control rating (Septoria tritici; [4]): 95* %
Test B disease control rating [1, 4]: 0* %
Test E disease control rating [2, 4]: 64* %
Test D disease control rating [3, 4]: 99* %

Cn1cc(C(=O)Nc2ccccc2-c2cnc(-n3ccc(C(F)F)n3)c(F)c2)c(C(F)F)n1 [compound 162]
Test C disease control rating (Septoria tritici; [5]): 98%
Test B disease control rating [1, 5]: 68%
Test E disease control rating [2, 5]: 99%
Test D disease control rating [3, 5]: 100%

COc1cccc(C2CC(c3ccc(-c4ccccc4NC(=O)c4cn(C)nc4C(F)F)cn3)=NO2)c1 (stereo not drawn) [compound 102]
Test C disease control rating (Septoria tritici; [5]): 97%
Test B disease control rating [1, 5]: 99%
Test E disease control rating [2, 5]: 73%
Test D disease control rating [3, 5]: 100%

O=C(Nc1ccccc1-c1ccc(-n2cc(Br)cn2)nc1)c1ncccc1C(F)(F)F [compound 14]
Test C disease control rating (Septoria tritici; [5]): 100%
Test B disease control rating [1, 5]: 100%
Test E disease control rating [2, 5]: 98%
Test D disease control rating [3, 5]: 99%

CC1=C(C(=O)Nc2ccccc2-c2cnc(-n3ccc(C(F)(F)F)n3)c(F)c2)SCCO1 [compound 113]
Test C disease control rating (Septoria tritici; [5]): 77%
Test B disease control rating [1, 5]: 0%
Test E disease control rating [2, 5]: 0%
Test D disease control rating [3, 5]: 97%

O=C(Nc1ccccc1-c1cnc(-n2ccc(C(F)(F)F)n2)c(Cl)c1)c1scnc1C(F)(F)F [compound 165]
Test C disease control rating (Septoria tritici; [4]): 99* %
Test B disease control rating [1, 5]: 0%
Test E disease control rating [2, 4]: 87* %
Test D disease control rating [3, 4]: 98* %

CC1=C(C(=O)Nc2ccccc2-c2cnc(-n3ccc(C(F)(F)F)n3)c(F)c2)S(=O)(=O)CCO1 [compound 114]
Test C disease control rating (Septoria tritici; [5]): 84%
Test B disease control rating [1, 5]: 0%
Test E disease control rating [2, 5]: 64%
Test D disease control rating [3, 5]: 100%

Cc1sccc1C(=O)Nc1ccccc1-c1cnc(-n2ccc(C(F)(F)F)n2)c(F)c1 [compound 163]
Test C disease control rating (Septoria tritici; [5]): 97%
Test B disease control rating [1, 5]: 79%
Test E disease control rating [2, 5]: 96%
Test D disease control rating [3, 5]: 100%

O=C(Nc1ccccc1-c1cnc(-n2ccc(C(F)(F)F)n2)c(F)c1)c1nccnc1C(F)(F)F [compound 115]
Test C disease control rating (Septoria tritici; [5]): 98%
Test B disease control rating [1, 5]: 100%
Test E disease control rating [2, 5]: 100%
Test D disease control rating [3, 5]: 100%

O=C(Nc1ccccc1-c1cnc(-n2ccc(C(F)(F)F)n2)c(Cl)c1)c1ccccc1C(F)F [compound 132]
Test C disease control rating (Septoria tritici; [5]): 99%
Test B disease control rating [1, 5]: 0%
Test E disease control rating [2, 5]: 98%
Test D disease control rating [3, 5]: 99%

CC1(C(=O)O)CC(c2ccc(-c3ccccc3NC(=O)c3ncccc3C(F)(F)F)cn2)=NO1 (racemic) [compound 146]
Test C disease control rating (Septoria tritici; [5]): 1%
Test B disease control rating [1, 5]: 0%
Test E disease control rating [2, 5]: 0%
Test D disease control rating [3, 5]: 0%

COc1cccc(C2CC(c3ccc(-c4ccccc4NC(=O)c4ncccc4C(F)(F)F)cn3)=NN2C)c1 (stereo not drawn) [compound 130]
Test C disease control rating (Septoria tritici; [5]): 89%
Test B disease control rating [1, 5]: 11%
Test E disease control rating [2, 5]: 69%
Test D disease control rating [3, 5]: 97%

Cc1nc(C(F)(F)F)c(C(=O)Nc2ccccc2-c2cnc(-n3ccc(C(F)(F)F)n3)c(F)c2)s1 [compound 151]
Test C disease control rating (Septoria tritici; [5]): 98%
Test B disease control rating [1, 5]: 0%
Test E disease control rating [2, 5]: 98%
Test D disease control rating [3, 5]: 100%

O=C(Nc1ccccc1-c1cnc(-n2ccc(C(F)(F)F)n2)c(Cl)c1)c1occc1Br [compound 117]
Test C disease control rating (Septoria tritici; [4]): 99* %
Test E disease control rating [2, 4]: 64* %
Test D disease control rating [3, 4]: 99* %

O=C(Nc1ccccc1-c1ccc(-n2cccn2)nc1)c1ncccc1C(F)(F)F [compound 12]
Test C disease control rating (Septoria tritici; [5]): 100%
Test B disease control rating [1, 5]: 100%
Test E disease control rating [2, 5]: 98%
Test D disease control rating [3, 5]: 99%

O=C(Nc1ccccc1-c1cnc(-n2ccc(C(F)(F)F)n2)c(F)c1)c1nccnc1Cl [compound 149]
Test C disease control rating (Septoria tritici; [5]): 97%
Test B disease control rating [1, 5]: 95%
Test E disease control rating [2, 5]: 98%
Test D disease control rating [3, 5]: 99%

O=C(NCCc1ncc(-n2ccc(Br)n2)cn1)c1ncccc1C(F)(F)F [Compound 179]
Test C disease control rating (Septoria tritici; [4]): 5* %
Test B disease control rating [1, 5]: 0%
Test E disease control rating [2, 4]: 0* %
Test D disease control rating [3, 4]: 0* %

COc1cccc(-c2cnn(-c3ccc(-c4ccccc4NC(=O)c4ncccc4C(F)(F)F)cn3)c2)c1 [compound 16]
Test C disease control rating (Septoria tritici; [5]): 100%
Test B disease control rating [1, 5]: 100%
Test E disease control rating [2, 5]: 69%
Test D disease control rating [3, 5]: 99%

O=C(Nc1ccccc1-c1cnc(-n2ccc(C(F)(F)F)n2)c(Cl)c1)c1sccc1C(F)(F)F [compound 167]
Test C disease control rating (Septoria tritici; [4]): 100* %
Test B disease control rating [1, 4]: 98* %
Test E disease control rating [2, 4]: 94* %
Test D disease control rating [3, 4]: 100* %

O=C(Nc1ccccc1-c1cnc(-n2ccc(C(F)(F)F)n2)c(Cl)c1)c1ccsc1 [compound 112]
Test C disease control rating (Septoria tritici; [4]): 77* %
Test E disease control rating [2, 4]: 0* %
Test D disease control rating [3, 4]: 0* %

Cc1ccsc1C(=O)Nc1ccccc1-c1cnc(-n2ccc(C(F)(F)F)n2)c(F)c1 [compound 152]
Test C disease control rating (Septoria tritici; [5]): 99%
Test B disease control rating [1, 5]: 99%
Test E disease control rating [2, 5]: 99%
Test D disease control rating [3, 5]: 100%

CSc1sccc1C(=O)Nc1ccccc1-c1cnc(-n2ccc(C(F)(F)F)n2)c(Cl)c1 [compound 142]
Test C disease control rating (Septoria tritici; [4]): 88* %
Test E disease control rating [2, 4]: 0* %
Test D disease control rating [3, 4]: 97* %

Cc1ccn(-c2cnc(CCNC(=O)c3ncccc3C(F)(F)F)nc2)n1 [Compound 178]
Test C disease control rating (Septoria tritici; [4]): 0* %
Test B disease control rating [1, 4]: 3* %
Test E disease control rating [2, 4]: 0* %
Test D disease control rating [3, 4]: 0* %

Cn1cc(C(=O)Nc2ccccc2-c2cnc(-n3ccc(C(F)(F)F)n3)c(C#N)c2)c(C(F)(F)F)n1 [compound 127]
Test C disease control rating (Septoria tritici; [4]): 62* %
Test B disease control rating [1, 5]: 0%
Test E disease control rating [2, 4]: 40* %
Test D disease control rating [3, 4]: 100* %

O=C(Nc1ccccc1-c1cnc(-n2ccc(C(F)(F)F)n2)c(F)c1)c1ncsc1C(F)(F)F [compound 126]
Test C disease control rating (Septoria tritici; [5]): 99%
Test B disease control rating [1, 5]: 99%
Test E disease control rating [2, 5]: 99%
Test D disease control rating [3, 5]: 100%

Cn1cc(C(=O)Nc2ccccc2-c2ccc(-n3cccn3)nc2)c(C(F)F)n1 [compound 15]
Test C disease control rating (Septoria tritici; [5]): 100%
Test B disease control rating [1, 5]: 99%
Test E disease control rating [2, 5]: 97%
Test D disease control rating [3, 5]: 100%

Cc1cnn(-c2cnc(CCNC(=O)c3ncccc3C(F)(F)F)nc2)c1 [Compound 182]
Test C disease control rating (Septoria tritici; [4]): 9* %
Test B disease control rating [1, 5]: 0%
Test E disease control rating [2, 4]: 0* %
Test D disease control rating [3, 4]: 0* %
